Source: US11197885B2, “Collagen enhancing agent made from low acyl gellan gum, methods of making and methods of using the same” (The University of Toledo, priority 2015, dated 2021)

Assays:
[1] = test system: rat embryonic cortical neurons exposed to 25 μM 4-HNE; test: neuritic atrophy caused by 4-HNE in cortical neurons; type: cell-based; settings: pre-treatment 2 days (1 μM; ascorbate 100 μM), then 25 μM 4-HNE 1 day
Description: Rat embryonic cortical neurons were treated with mock (FIG. 11C), 1 μM HA-GAGR (high acyl gellan gum), 1 μM dextran, 100 μM ascorbate, or 1 μM midi-GAGR (FIG. 13A) for 2 days and then with 25 μM 4-hydroxynonenal (4-HNE), a lipid peroxide, for 1 day. After fixation, neurons were immunostained with anti-synaptophysin antibody (green) and rhodamine-phalloidin (actin: red). Scholl ring analysis was performed.

[2] = test system: mouse cortical neurons (E17, DIV5); test: LIVE/DEAD assay, pre-treatment of mouse cortical neurons before 4HNE, H2O2 or Aβ42; type: cell-based; settings: pre-treatment 24 h (same concentrations)
From the text: The protective effect of polysaccharides on primary cortical neurons from 4HNE, H2O2, and Aβ42 peptide (Sigma) was examined using LIVE/DEAD® Viability/Cytotoxicity Assay Kit (Life Technologies). Female pregnant mice (BALB/C, E17, Charles River Laboratories International, Inc.) or female pregnant SD rats (E17, bred in house) were anesthetized and dissected to obtain 8-9 embryos per animal. Cortical neurons were isolated from embryonic brains and differentiated on poly-L-lysine-coated coverslips in B27/neurobasal medium. For drug treatment before free radical treatment, mouse cortical neurons (5 days in vitro [DIV5]) were treated with vehicle (H2O), 1 μM of 5 kD dextran (Sigma), alginate (Sigma), midi-GAGR, 0.01 μM of high acyl gellan gum (HA-GAGR, CPKelco Co.), or 0.1 μM of LA-GAGR for 24 h and then treated with 10 μM 4HNE or 50 μM H2O2 for 24 h, or 2 μM Aβ42 peptide for 48 h prior to viability/cytotoxicity assay. For drug co-treatment with free radicals, rat cortical neurons (DIV5) were treated with 1 μM of dextran, alginate, or midi-GAGR, 0.01 μM of HA-GAGR, or 0.1 μM of LA-GAGR along with either 10 μM 4HNE (24 h) or 2 μM Aβ42 peptide (48 h). To examine the extent to which midi-GAGR-mediated neuroprotection depends on FGFR1, rat cortical neurons (E17, DIV5) were pre-treated with 4 μM SU5402 (Sigma) for 6 h and treated with 10 μM 4HNE and either vehicle or 1 μM midi-GAGR for 24 h prior to cell viability/cytotoxicity assay. As controls, neurons were treated with SU5402, midi-GAGR, 4HNE, 4HNE plus midi-GAGR, or SU5402 plus midi-GAGR.
For cell viability/cytotoxicity measurement, neurons on glass coverslips were incubated in 1×PBS containing 2 μM calcein AM (live cells: green) and 4 μM ethidium homodimer-1 (dead cells: red) for 10 min at 37° C. Immediately thereafter, neurons were imaged by 10×objective using a fluorescence Olympus IX71 microscope (Olympus America Inc., Center Valley, Pa.) and, for the acquisition of high-quality images, using TCS SP5 multi-photon laser scanning confocal microscope.
Midi-GAGR attenuated neurite atrophy caused by free reactive radicals. It is now shown herein that midi-GAGR protect neurons from the death caused by free radical insults. The extent to which midi-GAGR protects the primary culture of rodent cortical neurons from 4HNE and H2O2 was determined. In addition to the radicals, amyloid β peptide (Aβ42) was also tested. Aβ42 peptide is a major causative factor that causes oxidative stress and neuron death. Mouse cortical neurons (E17, DIV5) were treated with 10 μM 4HNE (24 h), 50 μM H2O2 (24 h), or 2 μM Aβ42 peptide (48 h) after the treatment of the neurons with vehicle (H2O), midi-GAGR (1 μM), dextran (1 μM), alginate (1 μM), LA-GAGR (0.1 μM), or HA-GAGR (0.01 μM) for 24 h. The concentrations of 4HNE, H2O2, and Aβ42 peptide were chosen according to their patho-physiological concentrations. The concentrations of LA-GAGR and HA-GAGR were chosen because, within the same volume, the total numbers of sugar units in the polysaccharides at the concentrations are close to that of 1 μM midi-GAGR. The viability of neurons was assessed using LIVE/DEAD® Viability/Cytotoxicity Assay Kit in which membrane-permeant calcein AM is cleaved by esterase in live cells, thus yielding green fluorescence, and membrane-impermeant ethidium homodimer-1 stains the nucleic acids of plasma membrane-compromised cells with red fluorescence. The numbers of green (live) and red (dead) neurons in each condition were counted using Metamorph. Although the intensities of green fluorescent signals in neurons treated with either free radicals or Aβ42 peptide were weak, the neurons were included in the counting. About 8-9% of vehicle-treated neurons died during the process of live/dead cell assay (FIGS. 23A-23F, FIGS. 24A-24C).

dextran
neurites in the presence of 4-HNE (neuritic atrophy) [1]: lost neuritis
percent of neuron death ([2]; then 2 μM Aβ42 peptide 48 h): did not decrease
percent of neuron death ([2]; then 50 μM H2O2 24 h): did not reduce
